Source: patent US9908853B2, “Inhibitors of peptidyl arginine deiminase (PAD) enzymes and uses thereof” (University Health Network, priority 2012, dated 2018)
Like-named read-outs stand apart in the source and are kept apart here. One block for each compound: values may come before it.

Columns and labels:
human PAD4 = human PAD4 (Homo sapiens, UniProt Q9UM07); assay: Inhibition of PAD4 enzyme activity (BAEE substrate, colorimetric, 530 nm); type: biochemical
rabbit PAD2 = rabbit PAD2 (Oryctolagus cuniculus, UniProt G1T837); assay: Inhibition of PAD2 enzyme activity; type: biochemical; conditions: for IC50: rabbit PAD2, Table 1
rabbit PAD2, sequence (G1T837 1-665): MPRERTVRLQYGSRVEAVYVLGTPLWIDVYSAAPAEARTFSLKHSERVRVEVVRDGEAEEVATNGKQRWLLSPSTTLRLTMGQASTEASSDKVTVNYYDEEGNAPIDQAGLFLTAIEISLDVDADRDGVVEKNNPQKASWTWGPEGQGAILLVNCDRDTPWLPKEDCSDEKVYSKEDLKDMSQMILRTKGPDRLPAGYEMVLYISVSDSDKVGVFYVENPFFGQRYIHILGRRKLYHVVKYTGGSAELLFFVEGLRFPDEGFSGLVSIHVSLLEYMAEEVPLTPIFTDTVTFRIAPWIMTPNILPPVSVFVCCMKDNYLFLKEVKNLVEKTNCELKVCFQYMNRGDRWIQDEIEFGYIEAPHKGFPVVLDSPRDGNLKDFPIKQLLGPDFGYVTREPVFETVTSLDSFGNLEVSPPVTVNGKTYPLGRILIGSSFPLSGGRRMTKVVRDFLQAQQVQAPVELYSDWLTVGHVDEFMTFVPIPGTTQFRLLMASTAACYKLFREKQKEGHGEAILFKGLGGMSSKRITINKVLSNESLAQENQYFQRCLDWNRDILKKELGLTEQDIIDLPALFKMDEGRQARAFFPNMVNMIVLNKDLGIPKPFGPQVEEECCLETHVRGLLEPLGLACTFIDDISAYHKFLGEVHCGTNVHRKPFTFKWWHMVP

human PAD1 = target: T1, human PAD1 (Homo sapiens, UniProt Q9ULC6); assay: Inhibition of PAD1 enzyme activity (BAEE substrate, colorimetric, 530 nm); type: biochemical; conditions: for Ki: Table 2, read-out: PAD Ki ± SE (μM), PAD1
T1 sequence (Q9ULC6 1-663): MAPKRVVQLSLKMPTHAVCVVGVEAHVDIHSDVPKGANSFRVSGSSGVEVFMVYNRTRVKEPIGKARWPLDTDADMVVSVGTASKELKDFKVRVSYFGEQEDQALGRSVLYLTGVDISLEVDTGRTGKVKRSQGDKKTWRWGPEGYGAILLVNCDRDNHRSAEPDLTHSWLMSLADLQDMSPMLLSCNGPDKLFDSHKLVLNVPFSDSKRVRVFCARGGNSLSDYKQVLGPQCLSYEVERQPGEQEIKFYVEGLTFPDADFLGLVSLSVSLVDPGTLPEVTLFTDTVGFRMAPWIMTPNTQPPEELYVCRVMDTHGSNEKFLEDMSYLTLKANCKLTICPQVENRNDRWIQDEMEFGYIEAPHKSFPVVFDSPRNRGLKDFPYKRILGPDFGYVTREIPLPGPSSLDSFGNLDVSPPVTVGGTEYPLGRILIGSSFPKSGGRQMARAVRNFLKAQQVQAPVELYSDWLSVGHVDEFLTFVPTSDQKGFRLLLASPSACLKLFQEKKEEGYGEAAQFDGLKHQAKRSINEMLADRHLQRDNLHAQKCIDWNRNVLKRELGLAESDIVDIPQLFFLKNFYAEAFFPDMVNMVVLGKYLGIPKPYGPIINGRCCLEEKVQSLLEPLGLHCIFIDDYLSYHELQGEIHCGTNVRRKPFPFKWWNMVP
Experimental: Control reaction contained no inhibitor. Enzyme was added to initiate the reaction. The reaction samples were incubated at 37° C. for 30 min. Color reagent was added and the samples were boiled for 15 min. Samples were cooled on ice, further processed, and the absorbance was measured at 530 nm. Remaining activity was calculated as a percentage of the uninhibited samples.

[1] = In vitro cellular toxicity to CHO cells; type: cell-based; conditions: Chinese hamster, read-out: CHO cells IC50 ± SE
ND4 mouse = conditions: cited from earlier work
MOG-EAE model = conditions: cited from earlier work
[2] = tested on: PAD enzyme activity (i.e. PAD2 and PAD4); conditions: after addition of 2CA to human brain extracts; cited from earlier work
mice = assay: Mouse toxicity studies; type: in vivo
MOG-EAE mouse model = assay: MOG-EAE mouse model, compound of Formula (Ia); type: in vivo, C57BL/6 mice
Experimental: On day 8 after the induction of EAE, mice received 2 mg of the compound of Formula ([…].) every other day until day 23. […] Mice were sacrificed on day 24 (i.e. after 2 weeks of treatment) and anti-CD3 staining on spinal cord and brain samples was undertaken.

[3] = Example 8, read-out: equilibrium inhibition constant Ki against PAD2
[4] = Table 2, read-out: PAD Ki ± SE (μM), PAD4

human PAD4, sequence (Q9UM07 whole entry): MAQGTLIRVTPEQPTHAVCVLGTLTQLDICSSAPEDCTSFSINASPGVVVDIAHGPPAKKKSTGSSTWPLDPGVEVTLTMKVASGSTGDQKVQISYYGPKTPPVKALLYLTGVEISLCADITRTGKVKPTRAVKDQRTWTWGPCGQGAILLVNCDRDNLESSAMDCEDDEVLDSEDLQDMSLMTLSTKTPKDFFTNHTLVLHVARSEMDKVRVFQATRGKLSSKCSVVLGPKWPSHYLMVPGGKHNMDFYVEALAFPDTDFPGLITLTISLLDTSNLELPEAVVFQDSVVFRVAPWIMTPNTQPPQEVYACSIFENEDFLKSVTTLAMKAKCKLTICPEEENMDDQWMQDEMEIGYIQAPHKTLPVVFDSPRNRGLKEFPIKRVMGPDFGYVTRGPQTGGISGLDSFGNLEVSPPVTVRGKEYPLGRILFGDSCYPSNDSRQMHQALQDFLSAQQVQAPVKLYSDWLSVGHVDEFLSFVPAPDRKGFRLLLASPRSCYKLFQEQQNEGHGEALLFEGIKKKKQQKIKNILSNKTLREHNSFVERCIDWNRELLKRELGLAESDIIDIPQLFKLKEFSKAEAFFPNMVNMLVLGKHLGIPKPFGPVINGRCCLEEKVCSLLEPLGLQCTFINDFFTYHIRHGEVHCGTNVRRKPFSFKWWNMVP

Compound: CCOC(=O)CC1(C)NC(=O)N(CN2CCNCC2)C1=O (centres unmarked) [Formula (Ib), Ethyl [4-methyl-2,5-dioxo-1-(piperazin-1-ylmethyl)imidazolidin-4-yl]acetate]
IC50 (human PAD4; human PAD4, Table 1, varies with salt form and batch of the enzyme, read-out: IC50 (μM), PAD4): 36 ± 18 µM
Ki (rabbit PAD2; [3]): 0.46 µM
IC50 (rabbit PAD2): 12.3 ± 4.8 µM

Compound: CN1CCN(CN2C(=O)NC(C)(C)C2=O)CC1 [I(e)]
Ki (human PAD4; [4]): 45.6 ± 9 µM
Ki (human PAD1): 115 ± 5.5 µM
IC50 [1]: 143 ± 4 µM

Compound: N=C(N)CCl [Compound 2CA, 2-chloroacetamidine]
disease progression in ND4 mice, treatment after early onset (ND4 mouse; 5 mg/kg i.p. every other day, from 3.5 months up to 6 months of age): did not show disease progression
disease in ND4 mice, treatment before onset (ND4 mouse; 5 mg/kg i.p. every other day, started at 2 months of age): essentially prevented the disease
PAD activity in brain (ND4 mouse; ND4 mice, right after cessation of treatment at 6 months): attenuated
deaths in the treatment groups (ND4 mouse; ND4 mice, until 6 months of age): none died
G-ratio (axon diameter/fiber diameter), optic nerve (ND4 mouse; treated ND4 mice, healthy littermates 0.74+0.13, ND4 0.96+0.3): 0.9+0.15
survival by day 30 (MOG-EAE model; 5 mg/kg i.p. every other day starting day 9): ~50%
PAD activity in brain white matter (MOG-EAE model; EAE mice): effectively attenuated
PAD activity in spinal cord (MOG-EAE model; EAE mice): reductions to normal levels
relapse (MOG-EAE model; treated group): No relapse
disease lethality (MOG-EAE model; treatment started before immunization): zero
PAD activity in NAWM extracts [2]: declined

Compound: CC(C)(C)OC(=O)CC1(C)NC(=O)N(CN2CCNCC2)C1=O (centres unmarked) [Formula (Ic), tert-Butyl-[4-methyl-2,5-dioxo-1-(piperazin-1-ylmethyl)imidazolidin-4-yl]acetate]
Ki (rabbit PAD2; [3]): 0.65 µM
IC50 (rabbit PAD2): 16.8 ± 7 µM

Compound: CC1(C)NC(=O)N(CN2CCNCC2)C1=O [Formula (Ia)]
IC50 (human PAD4): 48.3 ± 7.4 µM
Ki (human PAD4): 7.4 µM
IC50 (human PAD4; read-out: IC50 (μM), PAD4, human PAD4, Table 1, varies with salt form and batch of the enzyme): ≤ 3820 µM
inhibition at 30 µM (human PAD4; read-out: Inhibition of the enzyme activity): 78%
Ki (rabbit PAD2): 0.93 µM
IC50 (human PAD1; Table 1): 763 µM
general toxicity (mice; 10 mg/mouse for 5 days): no general toxicity
general toxicity (mice; single 20 mg/mouse dose): no general toxicity
clinical scores (MOG-EAE mouse model; 2 mg b.i.d. i.p. every other day, day 8 to day 23, control group higher than 2): ~1
CD3 markers in brain (MOG-EAE mouse model; anti-CD3 staining, sacrificed day 24, untreated 4.8±0.19): 3.8±0.23 /mm^2
PAD activity in treated brain samples (MOG-EAE mouse model; sacrificed day 24): much reduced

Second part, led by results:

Ki (human PAD4; [4]): 317 ± 32.8 µM
Ki (human PAD1): 117 ± 41.1 µM
Compound: CC1(C)NC(=O)N(CCN)C1=O [I(i)]
IC50 [1]: 5840 ± 2370 µM

Inhibition of PAD4, in words (human PAD4): good activity
Ki (human PAD4; [4]): 21.8 ± 7.1 µM
Ki (human PAD1): 33.6 ± 2.6 µM
Compound: CC1(C)NC(=O)N(CCNCC(N)=O)C1=O [I(h)]

Ki (human PAD4; [4]): 384 ± 41 µM
Ki (human PAD1): 105 ± 22.1 µM
Compound: CC1(C)NC(=O)N(CCCN)C1=O [I(k)]

Ki (human PAD4; [4]): 52 ± 34.1 µM
Ki (human PAD1): 55.5 ± 12.3 µM
Compound: CC1(C)NC(=O)N(CCNCCN)C1=O [I(j)]
IC50 [1]: 2690 ± 175 µM

Ki (human PAD4; [4]): 123 ± 14.7 µM
Ki (human PAD1): 42.9 ± 5 µM
Compound: CC1(C)NC(=O)N(CCCNCCN)C1=O [I(l)]
IC50 [1]: 16700 ± 31600 µM

Ki (human PAD4; [4]): 4 ± 1.7 µM
Ki (human PAD1): 110 ± 4 µM
Compound: CC1(C)NC(=O)N(CCn2ccnc2)C1=O [I(g)]
IC50 [1]: 1990 ± 823 µM
